This is an account of results in patent US12661410B2, “Compounds for targeted degradation of RET” (C4 Therapeutics, Inc., priority 2020, dated 2026).

The target in assay [1] is T1, RET (658-1114) (Homo sapiens, UniProt P07949).
T1 construct: 658-1114; expressed in transfected cells; host or cells: 293T.144 (293T cells, generated in-house)
T1 sequence (P07949 658-1114): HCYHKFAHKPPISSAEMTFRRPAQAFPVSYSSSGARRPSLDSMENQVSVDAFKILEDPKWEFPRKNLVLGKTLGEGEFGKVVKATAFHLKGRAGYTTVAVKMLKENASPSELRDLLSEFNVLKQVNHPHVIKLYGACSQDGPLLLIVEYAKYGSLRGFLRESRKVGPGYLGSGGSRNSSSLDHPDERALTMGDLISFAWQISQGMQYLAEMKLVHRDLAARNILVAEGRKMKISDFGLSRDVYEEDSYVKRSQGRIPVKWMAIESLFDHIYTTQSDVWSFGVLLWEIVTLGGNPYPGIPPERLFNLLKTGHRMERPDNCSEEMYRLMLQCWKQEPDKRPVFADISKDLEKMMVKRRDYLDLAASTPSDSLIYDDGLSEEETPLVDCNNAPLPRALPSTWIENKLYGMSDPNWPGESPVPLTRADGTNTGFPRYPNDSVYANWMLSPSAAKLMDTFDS
Nature of the assay: HiBiT-Degradation, RET wild-type degradation assay (Nano-Glo HiBiT Lytic), 293T.144 cells. The format is cell-based. To be noted: for Emax / DC50: 6.0 hours; for Emax: read-out: 293T.144 RET (658-1114) 6.0 hours (Emax); for DC50: read-out: 293T.144 RET (658-1114) 6.0 hours (DC50). The text has this:
(§1) Dulbecco's modified Eagle medium (DMEM) no-phenol red media and fetal bovine serum (FBS) were purchased from Gibco (Grand Island, NY, USA). Cell lines ectopically expressing wild-type or G810R RET kinase domain fused with a HiBiT tag were generated in-house (293T. 144 and 293T. 165, respectively). Cell culture flasks and 384-well microplates were acquired from VWR (Radnor, PA, USA). The Nano-Glo® HiBiT Lytic Assay System was purchased from Promega (Madison, WI, USA).
(§2) RET wild-type (WT) and G810R degradation were assessed using the Nano-Glo® HiBiT Lytic assay (Promega, Medison, WI, USA). To determine the effect of degraders on protein levels, cells were plated in 384-well plates and treated with compounds of interest in duplicates for 6 hours using an 11-point half-log dilution series, with the highest dose set at 10 μM. Cell lysis and addition of the Nano-Glo® HiBiT Lytic Assay reagents was then performed. Luminescence signal was measured using an EnVision™ Multimode plate reader (Perkin Elmer, Santa Clara, CA, USA). The half-maximal degradation concentration (DC50) and % remaining protein (Emax) was then derived from the dose-response curves.
For orientation: With HiBiT, luminescence reflects the tagged protein that the partner subunit can reach.

The target of assay [2] is T2, RET(KD: 658-1114 G810R) (Homo sapiens, UniProt P07949, G810R).
T2 construct: 658-1114; expressed in transfected cells; host or cells: 293T.165 (293T cells, generated in-house)
T2 sequence (P07949 658-1114 G810R): T1 sequence (P07949 658-1114) with G153R
Nature of the assay: HiBiT-Degradation, RET G810R degradation assay (Nano-Glo HiBiT Lytic), 293T.165 cells. The format is cell-based. To be noted: for Emax / DC50: 6.0 hours; for Emax: % remaining protein, read-out: 293T.165 RET(KD: 658-1114 G810R) 6.0 hours (Emax); for DC50: read-out: 293T.165 RET(KD: 658-1114 G810R) 6.0 hours (DC50).
Text: as §1, §2

[3] abbreviates: half-maximal degradation concentration.

Substitutions are numbered along the chain they refer to. Where two headings read alike, the source gives them in different places.

Regarding `CCC1(C(=O)NC2CCC2)CCN(c2ccc(-c3nc(-c4cnn([C@H]5C[C@H](CN6CCN(c7ccc(N[C@H]8CCC(=O)NC8=O)cc7F)CC6)C5)c4)cn4ncc(C#N)c34)cn2)CC1` [Compound 188, 1-[5-[3-cyano-6-[1-[3-[[4-[4-[[(3S)-2,6-dioxo-3-piperidyl]amino]-2-fluoro-phenyl]piperazin-1-yl]methyl]cyclobutyl]pyrazol-4-yl]pyrazolo[1,5-a]pyrazin-4-yl]-2-pyridyl]-N-cyclobutyl-4-ethyl-piperidine-4-carboxamide], the “293T.144 RET (658-1114) 6.0 hours (IP) [nM]” value (“293T.144 RET” below) in assay [1] is “++++ (<50 nM = ++++)”. The maximal effect (Emax) (as a rule, the greatest response seen or fitted, relative to the assay's reference) in assay [1] (% remaining protein) is under 30%; in assay [2], under 50%. The 50% degradation concentration (DC50) in assay [1] (setting [3]) and in assay [2] (setting [3]) was under 50 nM in each case. The “293T.165 RET(KD: 658-1114 G810R) 6.0 hours (IP) [nM]” value in assay [2] was “++++ (<50 nM = ++++)”.

Consider `COc1ccc(CN2C[C@H]3COC[C@@H](C2)N3c2ccc(-c3nc(-c4cnn([C@H]5CC[C@H](N6CCN(c7ccc(NC8CCC(=O)NC8=O)cc7F)CC6)CC5)c4)cn4ncc(C#N)c34)cn2)cn1` (stereo partly drawn) [Compound 160, 6-[1-[4-[4-[4-[(2,6-dioxo-3-piperidyl)amino]-2-fluoro-phenyl]piperazin-1-yl]cyclohexyl]pyrazol-4-yl]-4-[6-[(1R,5S)-7-[(6-methoxy-3-pyridyl)methyl]-3-oxa-7,9-diazabicyclo[3.3.1]nonan-9-yl]-3-pyridyl]pyrazolo[1,5-a]pyrazine-3-carbonitrile], for which the “293T.144 RET” value in assay [1] is “++++ (<50 nM = ++++)”. Further, the Emax in assay [1] (% remaining protein) and in assay [2] was under 30% in each case. Besides, the DC50 in assay [1] (setting [3]) and in assay [2] (setting [3]) was under 50 nM throughout. In addition, the “293T.165 RET(KD: 658-1114 G810R) 6.0 hours (IP) [nM]” value in assay [2] is on record as “++++ (<50 nM = ++++)”.

For `N#Cc1cnn2cc(-c3cnn(C4CCN(C(=O)CN5CCC(c6ccc(OC7CCC(=O)NC7=O)cc6F)CC5)CC4)c3)nc(-c3ccc(N4CCN(Cc5cc(F)ccn5)CC4)cc3)c12` (centres unmarked) [Compound 38, 6-(1-(1-(2-(4-(4-((2,6-Dioxopiperidin-3-yl)oxy)-2-fluorophenyl)piperidin-1-yl)acetyl)piperidin-4-yl)-1H-pyrazol-4-yl)-4-(4-(4-((4-fluoropyridin-2-yl)methyl)piperazin-1-yl)phenyl)pyrazolo[1,5-a]pyrazine-3-carbonitrile], in assay [1] (HiBiT-Degradation), the “293T.144 RET” value was “++++ (< 50 nM = ++++)”; the DC50 (in general, the concentration at which degradation of the target reaches its halfway point) was under 50 nM; the Emax is under 30%. Further, in assay [2], the Emax was under 50%. In addition, the DC50 in assay [2] (setting [3]) was under 100 nM. Also, in assay [2] (HiBiT-Degradation), the “293T.165 RET(KD: 658-1114 G810R) 6.0 hours (Emax)” value is “+++ (<50% = +++)”, the “293T.165 RET(KD: 658-1114 G810R) 6.0 hours (IP) [nM]” value is “++++ (< 50 nM = ++++)” and the DC50 was under 100 nM.

As for `CCC1(C(=O)NC(C)C)CCN(c2ccc(-c3nc(-c4cnn(C5CCC6(CC5)CN(C(=O)CC5(O)CCN(c7ccc(NC8CCC(=O)NC8=O)cc7F)CC5)C6)c4)cn4ncc(C#N)c34)cn2)CC1` (centres unmarked) [Compound 182, 1-(5-(3-Cyano-6-(1-(2-(2-(1-(4-((2,6-dioxopiperidin-3-yl)amino)-2-fluorophenyl)-4-hydroxypiperidin-4-yl)acetyl)-2-azaspiro[3.5]nonan-7-yl)-1H-pyrazol-4-yl)pyrazolo[1,5-a]pyrazin-4-yl)pyridin-2-yl)-4-ethyl-N-isopropylpiperidine-4-carboxamide], the “293T.144 RET” value in assay [1] is reported as “++++ (<50 nM = ++++)”. Moreover, the values for the Emax in assay [1] (% remaining protein) and in assay [2] were under 30% and under 50%, respectively. Further, the DC50 in assay [1] (setting [3]) and in assay [2] (setting [3]) was under 50 nM each time. The “293T.165 RET(KD: 658-1114 G810R) 6.0 hours (IP) [nM]” value in assay [2] is reported as “++++ (<50 nM = ++++)”.

`N#Cc1cnn2cc(-c3cnn(C4CCN(C(=O)CC5(O)CCN(c6ccc(NC7CCC(=O)NC7=O)cc6F)CC5)CC4)c3)nc(-c3ccc(N4CCC(O)(Cc5ccccc5)CC4)nc3)c12` (centres unmarked) [Compound 117, 4-[6-(4-benzyl-4-hydroxy-1-piperidyl)-3-pyridyl]-6-[1-[1-[2-[1-[4-[(2,6-dioxo-3-piperidyl)amino]-2-fluoro-phenyl]-4-hydroxy-4-piperidyl]acetyl]-4-piperidyl]pyrazol-4-yl]pyrazolo[1,5-a]pyrazine-3-carbonitrile]: the “293T.144 RET” value in assay [1] is reported as “++++ (<50 nM = ++++)”. For the same molecule, the Emax in assay [1] (% remaining protein) and in assay [2] was under 30% each time. The DC50 in assay [1] (setting [3]) and in assay [2] (setting [3]) was under 50 nM throughout. Besides, in assay [2], the “293T.165 RET(KD: 658-1114 G810R) 6.0 hours (IP) [nM]” value is given as “++++ (<50 nM = ++++)”.

For the molecule `N#Cc1cnn2cc(-c3cnn(C4CCN(C(=O)CC5(O)CCN(c6ccc(NC7CCC(=O)NC7=O)cc6F)CC5)CC4)c3)nc(-c3ccc(N4CCN(C(=O)c5cccnc5)CC4)nc3)c12` (centres unmarked) [Compound 106, 6-[1-[1-[2-[1-[4-[(2,6-dioxo-3-piperidyl)amino]-2-fluoro-phenyl]-4-hydroxy-4-piperidyl]acetyl]-4-piperidyl]pyrazol-4-yl]-4-[6-[4-(pyridine-3-carbonyl)piperazin-1-yl]-3-pyridyl]pyrazolo[1,5-a]pyrazine-3-carbonitrile], the “293T.144 RET” value in assay [1] was “++++ (<50 nM = ++++)”. The Emax in assay [1] (% remaining protein) is under 30%; in assay [2], under 50%. The DC50 in assay [1] (setting [3]) is under 50 nM; in assay [2] (setting [3]), under 100 nM. Also, the “293T.165 RET(KD: 658-1114 G810R) 6.0 hours (IP) [nM]” value in assay [2] was “++++ (<50 nM = ++++)”.

Regarding `CCC1(C(=O)NC2CCC2)CCN(c2ccc(-c3nc(-c4cnn([C@H]5CC[C@H](N6CCC(c7ccc(NC8CCC(=O)NC8=O)cc7)CC6)CC5)c4)cn4ncc(C#N)c34)cn2)CC1` (single isomer, unassigned) [Compound 126, 1-(5-(3-cyano-6-(1-((1r, 4r)-4-(4-(4-((2,6-dioxopiperidin-3-yl)amino)phenyl)piperidin-1-yl)cyclohexyl)-1H-pyrazol-4-yl)pyrazolo[1,5-a]pyrazin-4-yl)pyridin-2-yl)-N-cyclobutyl-4-ethylpiperidine-4-carboxamide], in assay [1], the “293T.144 RET” value was “++++ (<50 nM = ++++)”. The Emax in assay [1] (% remaining protein) and in assay [2] was under 30% in each case. Besides, the DC50 in assay [1] (setting [3]) and in assay [2] (setting [3]) was under 50 nM throughout. Moreover, the “293T.165 RET(KD: 658-1114 G810R) 6.0 hours (IP) [nM]” value in assay [2] is recorded as “++++ (<50 nM = ++++)”.

As to `CC1(c2ncccn2)CCN(c2ccc(-c3nc(-c4cnn(C5CCN(C(=O)CC6(O)CCN(c7ccc(NC8CCC(=O)NC8=O)cc7F)CC6)CC5)c4)cn4ncc(C#N)c34)cn2)CC1` (centres unmarked) [Compound 104, 6-[1-[1-[2-[1-[4-[(2,6-dioxo-3-piperidyl)amino]-2-fluoro-phenyl]-4-hydroxy-4-piperidyl]acetyl]-4-piperidyl]pyrazol-4-yl]-4-[6-(4-methyl-4-pyrimidin-2-yl-1-piperidyl)-3-pyridyl]pyrazolo[1,5-a]pyrazine-3-carbonitrile], the “293T.144 RET” value in assay [1] is recorded as “++++ (<50 nM = ++++)”. Besides, the Emax in assay [1] (% remaining protein) and in assay [2] was under 30% throughout. Besides, the DC50 in assay [1] (setting [3]) and in assay [2] (setting [3]) was under 50 nM each time. In addition, the “293T.165 RET(KD: 658-1114 G810R) 6.0 hours (IP) [nM]” value in assay [2] is “++++ (<50 nM = ++++)”.
